Some results are limits rather than exact numbers.

In experiment [1] the target is Acetylcholinesterase (Homo sapiens, UniProt P22303). Type of experiment: functional.
Experiment [2] has as its target T1, Adenosine receptor A3 (Homo sapiens, UniProt P0DMS8).
T1 sequence (P0DMS8 whole entry): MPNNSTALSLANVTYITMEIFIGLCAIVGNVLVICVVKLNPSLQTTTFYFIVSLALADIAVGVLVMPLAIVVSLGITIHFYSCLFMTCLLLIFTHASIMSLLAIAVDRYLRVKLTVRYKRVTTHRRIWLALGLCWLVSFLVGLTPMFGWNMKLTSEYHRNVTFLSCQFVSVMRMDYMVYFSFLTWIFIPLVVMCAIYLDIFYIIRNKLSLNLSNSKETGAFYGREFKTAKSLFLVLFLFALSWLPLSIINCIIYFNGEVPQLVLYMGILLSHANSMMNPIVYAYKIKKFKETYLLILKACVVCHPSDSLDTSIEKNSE

In experiment [3] the target is T2, Alpha-1A adrenergic receptor (Homo sapiens, UniProt P35348).
T2 sequence (P35348 whole entry): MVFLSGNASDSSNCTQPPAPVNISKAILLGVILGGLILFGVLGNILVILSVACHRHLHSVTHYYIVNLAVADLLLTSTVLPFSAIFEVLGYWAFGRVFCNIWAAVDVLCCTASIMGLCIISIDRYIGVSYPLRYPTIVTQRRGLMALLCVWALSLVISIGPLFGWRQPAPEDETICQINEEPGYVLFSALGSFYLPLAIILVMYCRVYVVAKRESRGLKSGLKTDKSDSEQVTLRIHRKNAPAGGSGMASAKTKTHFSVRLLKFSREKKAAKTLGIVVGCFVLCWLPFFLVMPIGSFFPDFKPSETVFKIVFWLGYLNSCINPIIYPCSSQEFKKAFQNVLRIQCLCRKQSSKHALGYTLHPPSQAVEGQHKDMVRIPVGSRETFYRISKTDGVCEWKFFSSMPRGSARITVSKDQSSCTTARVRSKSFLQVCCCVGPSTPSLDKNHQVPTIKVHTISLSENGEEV
The class given is functional, cell-based.

The target in experiment [4] is D(1A) dopamine receptor (Homo sapiens, UniProt P21728).
For experiment [5], the target named is Prothrombin (Homo sapiens, UniProt P00734). The class given is functional.
For experiment [6], the target named is 5-hydroxytryptamine receptor 2B (Homo sapiens, UniProt P41595). The class given is functional, cell-based.
The target of experiment [7] is Voltage-gated inwardly rectifying potassium channel KCNH2 (Homo sapiens, UniProt Q12809). Type of experiment: functional. As to conditions: read-out: AC50.
Experiment [8] deals with T3, Amine oxidase [flavin-containing] A (Homo sapiens, UniProt P21397).
T3 sequence (P21397 whole entry): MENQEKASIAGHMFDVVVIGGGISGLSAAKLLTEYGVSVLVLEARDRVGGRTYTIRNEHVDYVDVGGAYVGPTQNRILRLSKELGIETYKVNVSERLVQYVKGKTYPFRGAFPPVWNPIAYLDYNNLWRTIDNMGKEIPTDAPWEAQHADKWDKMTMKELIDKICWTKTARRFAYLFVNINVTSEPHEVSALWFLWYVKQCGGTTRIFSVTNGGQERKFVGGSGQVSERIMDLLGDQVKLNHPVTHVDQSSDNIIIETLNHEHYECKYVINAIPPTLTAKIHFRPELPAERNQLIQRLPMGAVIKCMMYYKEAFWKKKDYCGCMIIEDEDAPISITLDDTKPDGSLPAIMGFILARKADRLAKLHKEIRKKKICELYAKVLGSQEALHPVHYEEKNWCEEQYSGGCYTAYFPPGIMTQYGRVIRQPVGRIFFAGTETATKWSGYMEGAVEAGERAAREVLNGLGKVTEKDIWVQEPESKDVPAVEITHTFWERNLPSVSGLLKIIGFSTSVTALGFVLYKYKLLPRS
Type of experiment: functional.

The target in experiment [9] is Mu-type opioid receptor (Homo sapiens, UniProt P35372).
Experiment [10] concerns the target 3',5'-cyclic-AMP phosphodiesterase 4A (Homo sapiens, UniProt P27815). Type of experiment: functional.
Experiment [11] addresses Prostaglandin G/H synthase 1 (Homo sapiens, UniProt P23219). The class given is functional.
The target in experiment [12] is Sodium-dependent noradrenaline transporter (Homo sapiens, UniProt P23975).
For experiment [13], the target named is Sodium-dependent dopamine transporter (Homo sapiens, UniProt Q01959).
In experiment [14] the target is Sodium-dependent serotonin transporter (Homo sapiens, UniProt P31645).
Experiment [15] has as its target T4, Thromboxane A2 receptor (Homo sapiens, UniProt P21731).
T4 sequence (P21731 whole entry): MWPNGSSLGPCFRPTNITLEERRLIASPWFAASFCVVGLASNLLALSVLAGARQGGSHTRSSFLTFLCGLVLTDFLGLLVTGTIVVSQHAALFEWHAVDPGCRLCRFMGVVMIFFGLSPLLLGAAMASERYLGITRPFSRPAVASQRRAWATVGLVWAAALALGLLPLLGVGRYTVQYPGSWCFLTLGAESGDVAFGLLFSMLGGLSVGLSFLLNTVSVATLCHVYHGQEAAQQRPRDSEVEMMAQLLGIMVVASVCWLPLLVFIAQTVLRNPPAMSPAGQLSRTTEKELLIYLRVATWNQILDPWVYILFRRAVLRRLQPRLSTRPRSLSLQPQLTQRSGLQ
The class given is functional, cell-based.

The target in experiment [16] is T4, Thromboxane A2 receptor. The class given is functional, cell-based. This is another data set of the same source.
Also: assay procedure not described here.

Sodium-dependent serotonin transporter, sequence (P31645 whole entry): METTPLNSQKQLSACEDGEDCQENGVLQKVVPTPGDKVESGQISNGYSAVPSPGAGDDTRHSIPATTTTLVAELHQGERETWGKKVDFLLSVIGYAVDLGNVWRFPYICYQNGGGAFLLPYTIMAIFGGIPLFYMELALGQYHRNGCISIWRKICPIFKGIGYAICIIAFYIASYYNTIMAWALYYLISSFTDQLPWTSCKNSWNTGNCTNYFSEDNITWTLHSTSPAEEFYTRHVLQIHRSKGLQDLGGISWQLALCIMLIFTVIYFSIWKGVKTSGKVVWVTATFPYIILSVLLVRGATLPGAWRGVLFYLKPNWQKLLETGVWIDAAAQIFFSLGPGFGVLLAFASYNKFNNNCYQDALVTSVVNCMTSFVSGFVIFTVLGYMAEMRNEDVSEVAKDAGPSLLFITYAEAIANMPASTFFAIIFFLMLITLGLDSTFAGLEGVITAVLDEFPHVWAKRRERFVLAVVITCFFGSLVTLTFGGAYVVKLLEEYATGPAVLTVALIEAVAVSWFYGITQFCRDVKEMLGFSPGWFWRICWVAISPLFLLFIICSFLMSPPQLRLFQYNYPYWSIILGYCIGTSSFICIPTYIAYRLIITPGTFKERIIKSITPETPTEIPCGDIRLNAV
Mu-type opioid receptor, sequence (P35372 whole entry): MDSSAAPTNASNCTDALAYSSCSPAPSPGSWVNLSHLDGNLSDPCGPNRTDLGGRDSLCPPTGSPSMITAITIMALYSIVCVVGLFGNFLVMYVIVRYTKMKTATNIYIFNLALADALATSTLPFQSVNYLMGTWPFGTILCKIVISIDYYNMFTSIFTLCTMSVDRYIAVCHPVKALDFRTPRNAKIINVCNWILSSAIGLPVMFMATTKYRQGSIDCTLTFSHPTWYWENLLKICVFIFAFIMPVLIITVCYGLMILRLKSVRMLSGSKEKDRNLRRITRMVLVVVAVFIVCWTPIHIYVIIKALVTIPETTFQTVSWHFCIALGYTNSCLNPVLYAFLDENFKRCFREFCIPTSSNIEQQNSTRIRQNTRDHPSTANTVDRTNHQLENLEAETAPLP
3',5'-cyclic-AMP phosphodiesterase 4A, sequence (P27815 whole entry): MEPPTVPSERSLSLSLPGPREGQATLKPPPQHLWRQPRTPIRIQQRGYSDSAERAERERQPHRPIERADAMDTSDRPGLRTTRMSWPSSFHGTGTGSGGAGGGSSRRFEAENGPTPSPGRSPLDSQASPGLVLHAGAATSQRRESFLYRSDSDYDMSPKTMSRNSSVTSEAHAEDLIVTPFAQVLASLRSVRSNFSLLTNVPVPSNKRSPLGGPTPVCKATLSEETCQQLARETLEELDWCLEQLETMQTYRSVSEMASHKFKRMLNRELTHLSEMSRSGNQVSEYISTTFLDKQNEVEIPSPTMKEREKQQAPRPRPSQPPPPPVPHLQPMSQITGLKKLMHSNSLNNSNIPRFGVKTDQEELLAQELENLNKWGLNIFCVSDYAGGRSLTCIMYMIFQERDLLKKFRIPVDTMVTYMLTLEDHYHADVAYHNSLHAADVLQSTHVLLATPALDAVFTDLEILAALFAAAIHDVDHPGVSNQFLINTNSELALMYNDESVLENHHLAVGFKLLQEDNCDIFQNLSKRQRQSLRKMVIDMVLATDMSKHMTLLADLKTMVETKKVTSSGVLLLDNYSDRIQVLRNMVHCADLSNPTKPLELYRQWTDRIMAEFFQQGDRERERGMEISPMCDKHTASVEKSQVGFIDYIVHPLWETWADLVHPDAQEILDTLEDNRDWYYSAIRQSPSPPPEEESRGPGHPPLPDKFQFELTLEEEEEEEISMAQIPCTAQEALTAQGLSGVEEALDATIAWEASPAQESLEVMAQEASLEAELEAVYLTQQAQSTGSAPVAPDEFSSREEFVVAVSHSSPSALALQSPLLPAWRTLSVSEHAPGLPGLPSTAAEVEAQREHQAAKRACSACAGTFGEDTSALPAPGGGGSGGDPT
Sodium-dependent noradrenaline transporter, sequence (P23975 whole entry): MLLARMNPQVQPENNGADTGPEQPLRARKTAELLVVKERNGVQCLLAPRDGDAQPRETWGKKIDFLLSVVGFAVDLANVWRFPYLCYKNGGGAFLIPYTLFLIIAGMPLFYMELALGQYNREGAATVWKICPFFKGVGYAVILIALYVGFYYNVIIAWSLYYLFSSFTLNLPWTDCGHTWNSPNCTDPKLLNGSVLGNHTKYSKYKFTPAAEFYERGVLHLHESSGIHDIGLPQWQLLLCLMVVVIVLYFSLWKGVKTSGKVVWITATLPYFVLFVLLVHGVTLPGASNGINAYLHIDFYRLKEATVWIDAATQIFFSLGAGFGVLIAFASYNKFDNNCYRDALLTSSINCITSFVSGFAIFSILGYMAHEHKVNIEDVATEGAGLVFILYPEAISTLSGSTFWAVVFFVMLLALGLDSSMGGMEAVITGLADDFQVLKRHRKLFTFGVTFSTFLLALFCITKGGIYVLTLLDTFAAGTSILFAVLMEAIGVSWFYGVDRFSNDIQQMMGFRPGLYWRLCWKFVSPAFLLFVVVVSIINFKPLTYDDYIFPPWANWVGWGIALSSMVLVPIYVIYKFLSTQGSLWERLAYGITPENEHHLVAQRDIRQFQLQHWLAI
Prostaglandin G/H synthase 1, sequence (P23219 whole entry): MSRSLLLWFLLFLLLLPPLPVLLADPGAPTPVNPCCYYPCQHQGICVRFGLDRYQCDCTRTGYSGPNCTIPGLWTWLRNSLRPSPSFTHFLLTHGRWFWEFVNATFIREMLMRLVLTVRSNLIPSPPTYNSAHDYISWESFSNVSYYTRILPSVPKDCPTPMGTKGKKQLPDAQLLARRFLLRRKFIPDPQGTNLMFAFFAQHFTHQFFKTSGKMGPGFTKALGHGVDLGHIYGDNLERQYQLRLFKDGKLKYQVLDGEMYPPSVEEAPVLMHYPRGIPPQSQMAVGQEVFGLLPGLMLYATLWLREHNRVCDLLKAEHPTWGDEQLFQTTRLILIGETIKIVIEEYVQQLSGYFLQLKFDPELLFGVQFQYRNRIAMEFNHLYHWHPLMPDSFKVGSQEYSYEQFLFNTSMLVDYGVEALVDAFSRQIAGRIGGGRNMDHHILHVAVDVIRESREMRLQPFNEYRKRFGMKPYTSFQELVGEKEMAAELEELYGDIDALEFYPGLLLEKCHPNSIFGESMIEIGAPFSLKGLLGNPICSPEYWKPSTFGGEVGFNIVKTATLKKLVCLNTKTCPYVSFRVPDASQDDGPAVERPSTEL
Acetylcholinesterase, sequence (P22303 whole entry): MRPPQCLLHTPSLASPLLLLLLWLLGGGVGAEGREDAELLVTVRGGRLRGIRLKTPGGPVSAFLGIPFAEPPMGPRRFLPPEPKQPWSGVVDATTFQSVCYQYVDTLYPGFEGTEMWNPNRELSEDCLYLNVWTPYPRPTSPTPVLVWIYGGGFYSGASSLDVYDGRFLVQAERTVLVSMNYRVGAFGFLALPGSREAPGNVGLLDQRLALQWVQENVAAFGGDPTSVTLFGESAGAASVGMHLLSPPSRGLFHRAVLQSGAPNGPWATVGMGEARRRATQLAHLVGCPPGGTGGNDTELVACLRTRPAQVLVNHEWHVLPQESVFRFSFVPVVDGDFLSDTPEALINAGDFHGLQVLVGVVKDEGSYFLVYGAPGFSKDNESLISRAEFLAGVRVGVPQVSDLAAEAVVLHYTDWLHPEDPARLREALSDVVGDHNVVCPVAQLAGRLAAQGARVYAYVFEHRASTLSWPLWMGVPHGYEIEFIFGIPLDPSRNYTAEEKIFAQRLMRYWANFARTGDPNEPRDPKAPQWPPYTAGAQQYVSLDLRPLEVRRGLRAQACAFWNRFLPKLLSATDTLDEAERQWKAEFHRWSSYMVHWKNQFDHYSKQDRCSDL
5-hydroxytryptamine receptor 2B, sequence (P41595 whole entry): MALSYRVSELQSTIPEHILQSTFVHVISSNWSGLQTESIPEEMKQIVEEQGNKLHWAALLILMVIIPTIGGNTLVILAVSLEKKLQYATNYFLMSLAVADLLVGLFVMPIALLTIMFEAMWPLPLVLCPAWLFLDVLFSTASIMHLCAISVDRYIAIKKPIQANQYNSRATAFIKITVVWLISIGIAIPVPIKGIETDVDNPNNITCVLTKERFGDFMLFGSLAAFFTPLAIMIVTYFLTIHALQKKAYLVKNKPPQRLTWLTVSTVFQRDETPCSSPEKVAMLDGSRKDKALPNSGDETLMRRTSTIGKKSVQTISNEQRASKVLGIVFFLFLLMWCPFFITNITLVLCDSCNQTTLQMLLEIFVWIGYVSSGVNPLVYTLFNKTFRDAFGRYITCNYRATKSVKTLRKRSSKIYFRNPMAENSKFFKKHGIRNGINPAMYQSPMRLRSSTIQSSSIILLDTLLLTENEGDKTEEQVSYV
D(1A) dopamine receptor, sequence (P21728 whole entry): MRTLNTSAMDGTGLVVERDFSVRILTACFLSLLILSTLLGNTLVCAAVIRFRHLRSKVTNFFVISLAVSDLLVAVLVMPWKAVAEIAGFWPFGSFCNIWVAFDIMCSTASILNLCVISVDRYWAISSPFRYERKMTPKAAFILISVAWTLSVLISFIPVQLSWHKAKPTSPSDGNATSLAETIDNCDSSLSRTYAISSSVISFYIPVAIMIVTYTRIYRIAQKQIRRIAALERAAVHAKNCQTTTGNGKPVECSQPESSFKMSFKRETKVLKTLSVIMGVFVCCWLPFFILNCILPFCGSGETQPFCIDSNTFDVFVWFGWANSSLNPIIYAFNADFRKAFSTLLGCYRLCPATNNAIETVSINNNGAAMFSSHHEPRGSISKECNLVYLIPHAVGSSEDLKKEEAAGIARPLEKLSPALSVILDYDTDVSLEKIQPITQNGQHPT

What is called AC50 is the midpoint of the concentration-response curve, whichever way the signal moves. For `CCC1C(C)=NN=C(c2ccc(OC)c(OC)c2)c2cc(OC)c(OC)cc21` (configuration not stated) [TOFISOPAM], the AC50 in experiment [1], in experiment [2], in [3], in experiment [4], in experiment [5] and in [6] was > 30 µM in each case. Besides, the AC50 in experiment [7] is > 30 µM; in experiment [8], > 30 µM; in [9], > 30 µM; in experiment [10], 0.319 µM; in experiment [11], > 30 µM; in experiment [12], > 30 µM. For the same compound, the AC50 in experiment [13], in [14], in [15] and in experiment [16] was > 30 µM each time.

`C[C@@H]1O[C@@H](OC[C@H]2O[C@@H](Oc3c(-c4ccc(OCCO)c(OCCO)c4)oc4cc(OCCO)cc(O)c4c3=O)[C@H](O)[C@@H](O)[C@@H]2O)[C@H](O)[C@H](O)[C@H]1O` [TROXERUTIN]: the AC50 was > 30 µM in experiment [1]; 7.52 µM in experiment [2]; > 30 µM in [3]; > 30 µM in experiment [4]; > 30 µM in [5]; > 30 µM in [6]. The AC50 in [7] is > 30 µM; in [8], > 30 µM; in [9], > 30 µM; in experiment [10], > 30 µM; in [11] it was 22.4 µM; in [12], > 30 µM. Also, the AC50 in experiment [13], in [14], in experiment [15] and in experiment [16] was > 30 µM in each case.

Values taken from ChEMBL document CHEMBL5291721, “A preclinical secondary pharmacology resource illuminates target-adverse drug reaction associations of marketed drugs” (Nat Commun, 2023).
